In general, IC50 refers to the concentration that inhibits the measured activity by half.

For the test, the target named is T1, AR (Homo sapiens, UniProt P10275, T878A).
T1 construct: into the androgen-dependent PCa cells (LNCaP); endogenous in cells; host or cells: LNCaP-ARR2PB-eGFP
T1 sequence (P10275 1-920 T878A): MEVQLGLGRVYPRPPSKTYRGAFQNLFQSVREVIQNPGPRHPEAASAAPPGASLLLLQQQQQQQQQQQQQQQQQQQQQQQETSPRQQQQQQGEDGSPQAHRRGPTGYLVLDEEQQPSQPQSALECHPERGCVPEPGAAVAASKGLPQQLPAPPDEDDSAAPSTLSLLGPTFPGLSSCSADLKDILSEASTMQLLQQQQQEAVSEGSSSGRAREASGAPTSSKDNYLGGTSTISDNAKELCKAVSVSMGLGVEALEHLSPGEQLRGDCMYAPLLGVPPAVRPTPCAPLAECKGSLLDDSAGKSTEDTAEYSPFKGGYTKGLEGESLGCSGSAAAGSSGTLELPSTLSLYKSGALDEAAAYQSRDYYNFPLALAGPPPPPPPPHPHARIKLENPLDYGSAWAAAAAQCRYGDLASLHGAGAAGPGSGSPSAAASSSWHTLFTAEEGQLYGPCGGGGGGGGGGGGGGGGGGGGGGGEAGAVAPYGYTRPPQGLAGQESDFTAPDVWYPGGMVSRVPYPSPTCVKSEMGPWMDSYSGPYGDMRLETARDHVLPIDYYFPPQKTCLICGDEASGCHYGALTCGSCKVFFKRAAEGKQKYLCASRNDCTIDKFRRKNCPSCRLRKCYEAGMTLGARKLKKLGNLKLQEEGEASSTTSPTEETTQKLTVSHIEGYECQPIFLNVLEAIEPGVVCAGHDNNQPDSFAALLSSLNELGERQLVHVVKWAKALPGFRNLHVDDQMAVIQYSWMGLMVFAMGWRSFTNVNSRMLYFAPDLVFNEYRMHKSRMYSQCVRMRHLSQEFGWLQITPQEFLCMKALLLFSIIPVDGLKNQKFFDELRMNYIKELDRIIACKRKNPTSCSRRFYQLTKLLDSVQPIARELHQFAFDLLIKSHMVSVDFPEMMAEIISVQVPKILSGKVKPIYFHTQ
Description: AR transcriptional activity, LNCaP-ARR2PB-eGFP reporter cells. Format: cell-based. The following applies: read-out: IC50 AR transcriptional activities. The text has this: Detection principles: We conducted a stable transfection of promoter ARR2PB known for its strong AR responsiveness, into the androgen-dependent PCa cells (LNCaP). The expression of enhanced green fluorescent protein (eGFP) is depending on the degree of activation of AR. Therefore, LNCaP-ARR2PB-eGFP cell line could quantitatively determine the AR antagonistic activities of the compounds by evaluating the expression of eGFP.
With `CC(=O)Cc1nsc(NC(=O)c2cc(-c3cccc(OC(F)F)c3)co2)n1` [Compound G-5, 4-(3-(Difluoromethoxy)phenyl)-N-(3-(2-oxopropyl)-1,2,4-thiadiazol-5-yl)furan-2-carboxamide], the IC50 was 32.7 µM.

On to `COC(=O)c1cccc(-c2cc(C(=O)Nc3nc(CC(C)=O)ns3)c(C)o2)c1` [Compound A-30, Methyl 3-(5-methyl-4-((3-(2-oxopropyl)-1,2,4-thiadiazol-5-yl)carbamoyl)furan-2-yl)benzoate], for which the IC50 worked out at 5.19 µM.

As for `CN1CCN(Cc2nsc(NC(=O)c3coc(-c4cccc(OC(F)F)c4)c3)n2)CC1` [Compound B-58, 5-(3-(Difluoromethoxy)phenyl)-N-(3-((4-methylpiperazin-1-yl)methyl)-1,2,4-thiadiazol-5-yl)furan-3-carboxamide], the IC50 came to 32.6 µM.

Take `CC(=O)Cc1nsc(NC(=O)c2cc(-c3cccc(C#N)c3)oc2C)n1` [Compound A-3, 5-(3-Cyanophenyl)-2-methyl-N-(3-(2-oxopropyl)-1,2,4-thiadiazol-5-yl)furan-3-carboxamide]: the IC50 came out at 0.32 µM. As for `CC(=O)Cc1nsc(NC(=O)c2cc(-c3cccc(C#N)c3)co2)n1` [Compound G-2, 4-(3-Cyanophenyl)-N-(3-(2-oxopropyl)-1,2,4-thiadiazol-5-yl)furan-2-carboxamide], the IC50 came to 35.5 µM. In the case of `O=C(Nc1nc(CCl)ns1)c1cc(-c2cccc(C(F)(F)F)c2)co1` [Compound G-19, N-(3-(chloromethyl)-1,2,4-thiadiazol-5-yl)-4-(3-(trifluoromethyl)phenyl)furan-2-carboxamide], the IC50 stood at 31.4 µM.

In the case of `CC(Cc1nsc(NC(=O)c2cc(-c3cccc(C#N)c3)oc2C(F)(F)F)n1)N1CCOCC1` (stereo not shown) [Compound E-8, 5-(3-Cyanophenyl)-N-(3-(2-morpholinopropyl)-1,2,4-thiadiazol-5-yl)-2-(trifluoromethyl)furan-3-carboxamide], the IC50 was determined as 7.54 µM. With `CC(Cc1nsc(NC(=O)c2coc(-c3cccc(C(F)(F)F)c3)c2)n1)N(C)C` (stereo not shown) [Compound B-6, N-(3-(2-(dimethylamino)propyl)-1,2,4-thiadiazol-5-yl)-5-(3-(trifluoromethyl)phenyl) furan-3-carboxamide], the concentration for half-maximal inhibition (IC50) turned out to be 11.8 µM. As for `CC(Cc1nsc(NC(=O)c2cc(-c3cccc(C(F)(F)F)c3)co2)n1)N1CCCC1` (stereo not shown) [Compound G-6, N-(3-(2-(pyrrolidin-1-yl)propyl)-1,2,4-thiadiazol-5-yl)-4-(3-(trifluoromethyl)phenyl) furan-2-carboxamide], the IC50 is 13.9 µM. Take `CC(=O)Cc1nsc(NC(=O)c2cc(-c3cccc([N+](=O)[O-])c3)oc2C)n1` [Compound A-2, 2-Methyl-5-(3-nitrophenyl)-N-(3-(2-oxopropyl)-1,2,4-thiadiazol-5-yl)furan-3-carboxamide]: the IC50 was determined as 0.04 µM. For the compound `Cc1oc(-c2cccc(OC(F)F)c2)cc1C(=O)Nc1nc(CN2CCOCC2)ns1` [Compound A-130, 5-(3-(Difluoromethoxy)phenyl)-2-methyl-N-(3-(morpholinomethyl)-1,2,4-thiadiazol-5-yl)furan-3-carboxamide], the IC50 is 0.67 µM. Consider `CC(=O)Cc1nsc(NC(=O)c2cc(-c3cccc4ccccc34)oc2C)n1` [Compound A-11, 2-Methyl-5-(naphthalen-1-yl)-N-(3-(2-oxopropyl)-1,2,4-thiadiazol-5-yl)furan-3-carboxamide], for which the IC50 is 4.24 µM. With `CC(=O)Cc1nsc(NC(=O)c2coc(-c3cccc(C(F)(F)F)c3)c2)n1` [Compound B-1, N-(3-(2-oxopropyl)-1,2,4-thiadiazol-5-yl)-5-(3-(trifluoromethyl)phenyl)furan-3-carboxamide], the IC50 came to 18.6 µM. Turning to `Cc1sc(-c2cccc(OC(F)F)c2)cc1C(=O)Nc1nc(CC(C)N2CCN(C)CC2)ns1` (stereo not shown) [Compound C-19, 5-(3-(Difluoromethoxy)phenyl)-2-methyl-N-(3-(2-(4-methylpiperazin-1-yl)propyl)-1,2,4-thiadiazol-5-yl)thiophene-3-carboxamide], the IC50 amounted to 15.4 µM. Consider `CC(F)(F)Cc1nsc(NC(=O)c2cc(-c3cccc(C(F)(F)F)c3)oc2C(F)(F)F)n1` [Compound E-27, N-(3-(2,2-difluoropropyl)-1,2,4-thiadiazol-5-yl)-2-(trifluoromethyl)-5-(3-(trifluoromethyl)phenyl) fura n-3-carboxamide], for which the IC50 is 0.95 µM. Regarding `CC(=O)Cc1nsc(NC(=O)c2cc(-c3cccc(Cl)c3)oc2C)n1` [Compound A-8, 5-(3-Chlorophenyl)-2-methyl-N-(3-(2-oxopropyl)-1,2,4-thiadiazol-5-yl)furan-3-carboxamide], the IC50 stood at 1.71 µM.

As for `CC(O)(Cc1nsc(NC(=O)c2coc(-c3cccc(C(F)(F)F)c3)c2)n1)C(F)(F)F` (stereo not shown) [Compound B-25, N-(3-(3,3,3-trifluoro-2-hydroxy-2-methylpropyl)-1,2,4-thiadiazol-5-yl)-5-(3-(trifluoro-methyl)phenyl)furan-3-carboxamide], the IC50 was found to be 15.5 µM. Consider `CCOc1cccc(-c2cc(C(=O)Nc3nc(CC(C)=O)ns3)c(C)o2)c1` [Compound A-6, 5-(3-Ethoxyphenyl)-2-methyl-N-(3-(2-oxopropyl)-1,2,4-thiadiazol-5-yl)furan-3-carboxamide], for which the IC50 is 0.13 µM. As to `CC(O)Cc1nsc(NC(=O)c2coc(-c3cccc(C(F)(F)F)c3)c2)n1` (stereo not shown) [Compound B-20, N-(3-(2-hydroxypropyl)-1,2,4-thiadiazol-5-yl)-5-(3-(trifluoromethyl)phenyl)furan-3-carboxamide], the IC50 was 11.5 µM. As to `O=C(Nc1nc(CN2CCOCC2)ns1)c1coc(-c2cccc(OC(F)F)c2)c1` [Compound B-57, 5-(3-(Difluoromethoxy)phenyl)-N-(3-(morpholinomethyl)-1,2,4-thiadiazol-5-yl)furan-3-carboxamide], the IC50 was 23.5 µM. `CN1CCN(Cc2nsc(NC(=O)c3csc(-c4cccc(OC(F)F)c4)c3)n2)CC1` [Compound D-58, 5-(3-(Difluoromethoxy)phenyl)-N-(3-((4-methylpiperazin-1-yl)methyl)-1,2,4-thiadiazol-5-yl)thiophene-3-carboxamide]: the IC50 is 23.7 µM. Turning to `Cc1sc(-c2cccc(C(F)(F)F)c2)cc1C(=O)Nc1nc(CC(C)(O)C(F)(F)F)ns1` (stereo not shown) [Compound C-25, 2-Methyl-N-(3-(3,3,3-trifluoro-2-hydroxy-2-methylpropyl)-1,2,4-thiadiazol-5-yl)-5-(3-(trifluoromethyl)phenyl)thiophene-3-carboxamide], the IC50 came out at 2.51 µM. Regarding `CC(O)Cc1nsc(NC(=O)c2cc(-c3cccc(C(F)(F)F)c3)oc2C(F)(F)F)n1` (stereo not shown) [Compound E-12, N-(3-(2-hydroxypropyl)-1,2,4-thiadiazol-5-yl)-2-(trifluoromethyl)-5-(3-(trifluoromethyl)phenyl)furan-3-carboxamide], the IC50 turned out to be 1.57 µM. On to `CC(=O)Cc1nsc(NC(=O)c2cc(-c3cccc(OC(C)=O)c3)oc2C)n1` [Compound A-27, 3-(5-Methyl-4-((3-(2-oxopropyl)-1,2,4-thiadiazol-5-yl)carbamoyl)furan-2-yl)phenyl acetate], for which the IC50 is 5.5 µM. Turning to `Cc1sc(-c2cccc(OC(F)F)c2)cc1C(=O)Nc1nc(CN2CCCCC2)ns1` [Compound C-56, 5-(3-(Difluoromethoxy)phenyl)-2-methyl-N-(3-(piperidin-1-ylmethyl)-1,2,4-thiadiazol-5-yl)thiophene-3-carboxamide], the IC50 is 12.9 µM.

As to `COc1cccc(-c2cc(C(=O)Nc3nc(CC(C)N4CCCC4)ns3)c(C)s2)c1` (stereo not shown) [Compound C-14, 5-(3-Methoxyphenyl)-2-methyl-N-(3-(2-(pyrrolidin-1-yl)propyl)-1,2,4-thiadiazol-5-yl)thiophene-3-carboxamide], the IC50 came out at 19.4 µM.

Consider `CNC(C)Cc1nsc(NC(=O)c2cc(-c3cccc(C(F)(F)F)c3)oc2C)n1` (stereo not shown) [Compound A-96, 2-Methyl-N-(3-(2-(methylamino)propyl)-1,2,4-thiadiazol-5-yl)-5-(3-(trifluoromethyl)phenyl)furan-3-carboxamide], for which the IC50 came to 0.16 µM.

For `CC(=O)Cc1nsc(NC(=O)c2cc(-c3cccc(C(F)(F)F)c3)oc2C(F)(F)F)n1` [Compound E-1, N-(3-(2-oxopropyl)-1,2,4-thiadiazol-5-yl)-2-(trifluoromethyl)-5-(3-(trifluoro-methyl)phenyl)furan-3-carboxamide], the IC50 was 1.06 µM.

The values above are taken from patent US20240376091A1, “THIADIAZOLEAMIDE DERIVATIVES AND THEIR APPLICATIONS” (ZHEJIANG UNIVERSITY, priority 2021, published 2024).
